Source: article PMC10047683, “A Novel Family of Lysosomotropic Tetracyclic Compounds for Treating Leukemia” (Cancers, 2023)

How the values were obtained:
MonoMac1 AML cells = test: MonoMac1 AML xenograft, bone-marrow engraftment; type: in vivo, NSG mice; settings: 30 mg/kg IP, 10 consecutive days; engraftment at Day 12
Description: We myeloablated 6–8-week-old NOD.Cg-Prkdc^scid Il2rg^tm1Wjl/SzJ (NSG, Jackson Laboratories) mice with busulfan (30 mg/kg IP) at Day 0. The next day, mice were transplanted with KG1 (10 million cells per mouse) or MonoMac1 (1 million per mouse) AML cells that had previously been transduced with luciferase-containing plasmid pLL-EF1a-rFLuc-T2A-GFP (Systems Bioscience #LL410PA-1) and left untreated for 3 (MonoMac1) or 5 days (KG1). For IP administration, compounds were dissolved in DMSO and diluted in saline prior to injection. For SC treatments, drugs were solubilized using Tween 80 (Escuder) and high-viscosity carboxymethylcellulose (CMC, Merck). For bioluminescence detection, mice were SC-administered 150 mg/kg Xenolight D-luciferin potassium salt luminescent substrate (Perkin Elmer), and the luminescence of isoflurane-anesthetized mice was acquired after 10 min in an IVIS Lumina II imaging device (Perkin Elmer) at adequate acquisition times (2 min for MonoMac-1, 30 s for KG1). The following quantitation and analysis were conducted with Aura Imaging software (Spectral Instruments Imaging). The last day of the experiment, mice were culled, and tibias and femurs were harvested. Engraftment was determined as the percentage of live human CD45-expressing cells in the bone marrow as assessed with flow cytometry. […]

primary AML samples = test: Cytotoxicity in primary AML samples (flow cytometry, blast gate); type: cell-based, human
From the text: Primary AML samples were obtained at diagnosis from patients diagnosed at Hospital Clínic of Barcelona (Spain) and Hospital Germans Trias i Pujol (Badalona, Spain). AML diagnosis, classification, and risk stratification were based on the latest revised WHO criteria (Supplementary Table S1). Clinical characteristics of AML patients are summarized in Supplementary Table S1. Mononuclear cells (MNCs) were isolated with Ficoll density gradient centrifugation (GE Healthcare, Chicago, IL, USA). All patients provided their written informed consent in accordance with the Declaration of Helsinki, and the study was approved by the corresponding ethics committees. Mature blood MNCs were isolated from healthy donors’ buffy coats provided by Banc de Sang i Teixits (BSiT, Barcelona, Spain). Umbilical-cord blood was provided by BSiT, and MNCs were depleted for lineage marker-positive cells using magnetic separation with the Human Lineage Cell Depletion kit (Miltenyi Biotec, North Rhine-Westphalia, Germany) following the manufacturer’s recommendations.
(§1) First, 2 × 10^5 (72 h assays in cell lines (Supplementary File S1)), 3 × 10^5 (48 h assays in cell lines) or 7.5 × 10^5 (primary AML, healthy donor buffy coats) cells per mL were cultured in 96-well plates, and all drugs were added at the indicated concentrations. In α-tocopherol experiments, cells were treated with growing concentrations of α-tocopherol and EDK drugs for 48 h. In the NAC and 3MA experiments, treatment was simultaneous with EDK compounds. In glucose deprivation experiments, cells were cultivated with a standard medium (glucose high, 2 g/L), a standard medium without glucose, or a standard medium with galactose (2 g/L) and without glucose. Cell viability was measured via 7-AAD (eBioscience) exclusion and Hoechst33342 (Sigma-Aldrich, St. Louis, MO, USA) positivity staining via flow cytometry, and the cell count was obtained through volume. In the experiments with the primary cells, analyses were performed inside the blast population as detected via blast gates (CD45^low SSC^int). For solid tumor cell lines, viability was analyzed using CellTiter-Glo® Luminescent Cell Viability Assay (Promega).

TFEB = TFEB promoter-luciferase reporter; type: cell-based; settings: HEK293T; 10 and 20 µM, 24 h
Description: We transfected 2.5 × 10^5 HEK-293T cells per condition using the jetPEI DNA transfection reagent (Polyplus) with TFEB promoter-luciferase reporter Addgene#66801. Then, at 24 h post-transfection, cells were treated at the indicated conditions, and the 48 h post-transfection luminescence of lysed cells was analyzed according to the manufacturer’s specifications.

AML patient samples = test: Combination with ATO, viability by flow cytometry and Bliss synergy; type: cell-based, human; settings: for Effectivity (%Viability reduction): 48 h
Description: as §1
(§2) Synergy was calculated using SynergyFinder 2.0 with the Bliss reference model.

[1] = test system: healthy donor blood samples (BC: buffy coat); test: as above; type: cell-based, human; settings: 48 h
Description: as §1, §2

hERG = target: T1, hERG (Homo sapiens, UniProt Q12809); test: In vitro hERG inhibition; type: biochemical
T1 construct: Eurofins Discovery Services (CEREP laboratories)
T1 sequence (Q12809 whole entry): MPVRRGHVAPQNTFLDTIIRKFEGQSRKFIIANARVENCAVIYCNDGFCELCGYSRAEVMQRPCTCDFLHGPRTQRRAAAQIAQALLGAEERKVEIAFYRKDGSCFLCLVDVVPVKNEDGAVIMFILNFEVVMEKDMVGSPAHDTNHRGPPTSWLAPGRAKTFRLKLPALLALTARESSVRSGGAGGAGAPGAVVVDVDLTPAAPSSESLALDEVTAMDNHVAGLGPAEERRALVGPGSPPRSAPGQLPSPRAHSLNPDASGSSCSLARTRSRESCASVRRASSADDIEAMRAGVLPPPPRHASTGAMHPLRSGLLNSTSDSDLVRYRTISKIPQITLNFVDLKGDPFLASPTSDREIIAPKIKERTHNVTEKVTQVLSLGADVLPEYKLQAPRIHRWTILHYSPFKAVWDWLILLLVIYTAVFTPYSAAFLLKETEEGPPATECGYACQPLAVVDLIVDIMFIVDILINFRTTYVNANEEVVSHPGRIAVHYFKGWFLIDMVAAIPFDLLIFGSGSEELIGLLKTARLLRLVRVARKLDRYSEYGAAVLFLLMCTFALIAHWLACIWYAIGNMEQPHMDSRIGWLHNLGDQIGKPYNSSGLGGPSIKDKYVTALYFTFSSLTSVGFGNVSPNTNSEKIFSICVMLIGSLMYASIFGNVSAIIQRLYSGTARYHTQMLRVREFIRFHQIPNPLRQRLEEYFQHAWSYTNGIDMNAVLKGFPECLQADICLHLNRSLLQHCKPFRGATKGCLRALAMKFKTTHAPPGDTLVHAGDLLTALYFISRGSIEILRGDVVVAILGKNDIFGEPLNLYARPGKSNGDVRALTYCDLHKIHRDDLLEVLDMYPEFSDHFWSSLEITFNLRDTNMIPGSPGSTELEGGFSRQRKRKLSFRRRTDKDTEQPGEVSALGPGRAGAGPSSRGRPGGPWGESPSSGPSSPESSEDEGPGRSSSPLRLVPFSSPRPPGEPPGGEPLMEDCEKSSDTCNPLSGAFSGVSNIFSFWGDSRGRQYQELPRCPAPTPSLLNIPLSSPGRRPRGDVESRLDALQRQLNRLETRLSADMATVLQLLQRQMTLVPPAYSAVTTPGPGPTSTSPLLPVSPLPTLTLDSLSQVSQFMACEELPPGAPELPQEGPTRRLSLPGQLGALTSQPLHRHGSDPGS
Description: (§3) All ADMET studies were performed in Eurofins Discovery Services (CEREP laboratories, Celle-Lévescault France). The pharmacokinetic studies were performed in Draconis Pharma SL (Barcelona, Spain) in CD-1 mice treated with 30 mg/kg EDK87 or EDK88 via SC or OG. Blood was collected by cardiac puncture at 0.5, 1, 2, 4, or 24 h.

ADME-Tox: solubility = type: physicochemical
Description: as §3

## CN1CCC(=C2c3ccccc3-c3c2sc2ccccc32)CC1 [EDK-87]
MonoMac1 AML cells
  reduced the leukemic burden in the bone marrow: 58.44%
Primary AML samples; 14 primary AML samples, 72 h, EDK-87 10 and 25 µM, EDK-88 5 and 10 µM assayed
  reduced the numbers of primary leukemic cells: 43% ± 8.5
Primary AML samples; AML sample #61, 5 µM, 72 h
  # Live cells refer to control: 112%
Primary AML samples; AML sample #61, 10 µM, 72 h
  # Live cells refer to control: 107%
Primary AML samples; AML sample #61, 25 µM, 72 h
  # Live cells refer to control: 47%
Primary AML samples; AML sample #63, 5 µM, 72 h
  # Live cells refer to control: 71%
Primary AML samples; AML sample #63, 10 µM, 72 h
  # Live cells refer to control: 37%
Primary AML samples; AML sample #63, 25 µM, 72 h
  # Live cells refer to control: 13%
Primary AML samples; AML sample #98, 5 µM, 72 h
  # Live cells refer to control: 59%
Primary AML samples; AML sample #98, 10 µM, 72 h
  # Live cells refer to control: 26%
Primary AML samples; AML sample #98, 25 µM, 72 h
  # Live cells refer to control: 5%
Primary AML samples; AML sample #130, 5 µM, 72 h
  # Live cells refer to control: 97%
Primary AML samples; AML sample #130, 10 µM, 72 h
  # Live cells refer to control: 97%
Primary AML samples; AML sample #130, 25 µM, 72 h
  # Live cells refer to control: 35%
Primary AML samples; AML sample #132, 5 µM, 72 h
  # Live cells refer to control: 74%
Primary AML samples; AML sample #132, 10 µM, 72 h
  # Live cells refer to control: 60%
Primary AML samples; AML sample #133, 5 µM, 72 h
  # Live cells refer to control: 60%
Primary AML samples; AML sample #133, 10 µM, 72 h
  # Live cells refer to control: 19%
Primary AML samples; AML sample #134, 5 µM, 72 h
  # Live cells refer to control: 97%
Primary AML samples; AML sample #134, 10 µM, 72 h
  # Live cells refer to control: 89%
Primary AML samples; AML sample #135, 5 µM, 72 h
  # Live cells refer to control: 94%
Primary AML samples; AML sample #135, 10 µM, 72 h
  # Live cells refer to control: 80%
Primary AML samples; AML sample #135, 25 µM, 72 h
  # Live cells refer to control: 14%
Primary AML samples; AML sample #136, 5 µM, 72 h
  # Live cells refer to control: 97%
Primary AML samples; AML sample #136, 10 µM, 72 h
  # Live cells refer to control: 51%
Primary AML samples; AML sample #136, 25 µM, 72 h
  # Live cells refer to control: 2%
Primary AML samples; AML sample #141, 5 µM, 72 h
  # Live cells refer to control: 77%
Primary AML samples; AML sample #141, 10 µM, 72 h
  # Live cells refer to control: 52%
Primary AML samples; AML sample #147, 5 µM, 72 h
  # Live cells refer to control: 17%
Primary AML samples; AML sample #148, 5 µM, 72 h
  # Live cells refer to control: 47%
Primary AML samples; AML sample #148, 10 µM, 72 h
  # Live cells refer to control: 5%
Primary AML samples; AML sample #152, 5 µM, 72 h
  # Live cells refer to control: 83%
Primary AML samples; AML sample #152, 10 µM, 72 h
  # Live cells refer to control: 56%
Primary AML samples; AML sample #153, 5 µM, 72 h
  # Live cells refer to control: 78%
Primary AML samples; AML sample #153, 10 µM, 72 h
  # Live cells refer to control: 65%
Primary AML samples; primary AML vs healthy-donor blood cells
  therapeutic window (viability): 2.4
TFEB
  TFEB activity (reporter): activation of TFEB activity
AML patient samples; AML cell lines and three primary AML samples
  synergy with ATO: highly synergistic
AML patient samples; AML#63, single agent 5 µM
  Effectivity (%Viability reduction): -5%
AML patient samples; AML#63, single agent 10 µM
  Effectivity (%Viability reduction): -19%
AML patient samples; AML#98, single agent 1 µM
  Effectivity (%Viability reduction): -9%
AML patient samples; AML#98, single agent 5 µM
  Effectivity (%Viability reduction): 0%
AML patient samples; AML#98, single agent 10 µM
  Effectivity (%Viability reduction): 8%
AML patient samples; AML#133, single agent 1 µM
  Effectivity (%Viability reduction): -9%
AML patient samples; AML#133, single agent 5 µM
  Effectivity (%Viability reduction): 3%
AML patient samples; AML#133, single agent 10 µM
  Effectivity (%Viability reduction): 19%
[1]; BC#1, single agent 1 µM
  Effectivity (%Viability reduction): 0%
[1]; BC#1, single agent 5 µM
  Effectivity (%Viability reduction): 4%
[1]; BC#1, single agent 10 µM
  Effectivity (%Viability reduction): 19%
[1]; BC#2, single agent 1 µM
  Effectivity (%Viability reduction): 0%
[1]; BC#2, single agent 5 µM
  Effectivity (%Viability reduction): 4%
[1]; BC#2, single agent 10 µM
  Effectivity (%Viability reduction): 14%
hERG
  hERG inhibition: concerning results
ADME-Tox: solubility
  solubility as compared to EDK-88: lower
